Measured values published in patent publication US20110142884A1, “Materials and Methods for Making Improved Micelle Compositions” (The Board of Trustees of the University of Illinois, priority 2002, published 2011).
In brackets after ≈: the same amount, converted by molar mass.

Tests used:
physchem = conditions: pH 7.4, aqueous with cosolvent or surfactant or cyclodextrin, thermodynamic from solid, paclitaxel solubilized by SSMM
Experimental: Solubilization potential of both micelle compositions for a model drug was measured by HPLC after separation of the unincorporated drug.
Excess drug was removed by centrifugation and the supernatant was analyzed by HPLC. […] HPLC eluent was measured with adsorption at 254 nm.
According to this example, micelle compositions of the invention were further characterized. Particularly, the physiochemical properties of sterically stabilized micelles prepared with DSPE conjugated to molecular weight 2000, 3000, and 5000 PEG were analyzed. The critical micelle concentration (CMC) of phospholipids was determined at pH 7.4 and 25° C. using a water-insoluble fluorescent probe (1,6-diphenyl-1,3,5-hexatriene). Micellar size was determined by quasi-elastic light scattering.
The solvent was then removed by vacuum rotary evaporation under a stream of argon to form a dry film. This dry film was further dried under vacuum overnight to remove any traces of remaining solvent. The dried film was rehydrated with isotonic 0.01M HEPES buffer, pH 7.4. The solution was then flushed with argon, sealed and equilibrated for 12 h at room temperature. The unsolubilized excess paclitaxel was removed by centrifugation at 13,000 g for 5 min to obtain a clear dispersion.
The solubilization potentials of SSMM and SSM for paclitaxel were determined by RP-HPLC. The clear aqueous dispersion was diluted with methanol. 20 μl of each sample was injected at least three times into a μBondapak C-18 column, 3.9 mm×30 cm (Waters, Milford, Mass.) equipped with a C18 column guard. The column was eluted with acetonitrile/water (60:40) at 1.0 ml/min (Waters 600). Detection was by UV absorption measurement at 227 nm (Waters 490). Peak areas were calculated by interfacing the detector to an electronic integrator (Hewlett Packard). The drug concentration was calculated from standard curves.

[1] = test system: human breast cancer cells (MCF-7); assay: In vitro cytotoxic activity, sulforhodamine B; conditions: three days incubation
Experimental: The cytotoxic activity of paclitaxel in SSMM, SSM and dimethyl sulfoxide (10% DMSO) was determined against human breast cancer cells (MCF-7; ATCC # HTB-22). The cell line was maintained in RPMI 1640 medium containing 10% fetal bovine serum and 1.0% antibiotics (penicillin and streptomycin), in a 5% carbon dioxide humidified atmosphere at 37° C. Optimum solutions of paclitaxel-SSM and paclitaxel-SSMM chosen from the solubilization studies were used as the test solutions. A 10% dimethyl sulfoxide (DMSO) solution of paclitaxel was also tested as a control. […]
Briefly, samples were prepared as described earlier and serial dilutions were made to obtain paclitaxel concentrations ranging from 0.0013 to 4 μg/ml using the respective solvent that is either HEPES buffer or 10% DMSO. […] Each sample was evaluated in triplicate. […] The optical density was then read at 515 nm. The optical density readings obtained for the solvent controls were used to define 100% growth after correcting for the value obtained for the zero day control. These values were then expressed as a % survival and ED50 values calculated using non-linear regression analysis (percent survival versus concentration).
All the data are expressed as means±standard deviation (SD). […] ED50 values were calculated for each formulation and compared statistically using one-way analysis of variance. […]

solubility at 12 h (physchem): 1320 ± 48 µg/mL (≈ 1550 µM)
Compound: CC(=O)O[C@H]1C(=O)[C@@]2(C)[C@H]([C@H](OC(=O)c3ccccc3)[C@]3(O)C[C@H](OC(=O)[C@H](O)[C@@H](NC(=O)c4ccccc4)c4ccccc4)C(C)=C1C3(C)C)[C@]1(OC(C)=O)CO[C@@H]1C[C@@H]2O [paclitaxel]
cytotoxic activity against MCF-7 cells [1]: comparable cytotoxic activities
